“And” between values parts separate entries of the source, which are not always exact repeats. Identical values can stand only once.
Tests used:
SARS-CoV2 = test: microbe, parasite or virus in culture; format: cell-based; conditions: for Percentages of infection at 24 h: MOI 0.002, technical replicates
Vero cells = conditions: uninfected Vero cells, MTT, 24 h
[1] = Severe acute respiratory syndrome coronavirus 2, Vero, 24 h

CCC(CC)COC(=O)[C@H](C)N[P@](=O)(OC[C@H]1O[C@@](C#N)(c2ccc3c(N)ncnn23)[C@H](O)[C@@H]1O)Oc1ccccc1 [Remdesivir]
Percentages of infection at 24 h (SARS-CoV2; 0.01 μM): 17.52% and 14.77% and 19.44% | Percentages of infection at 24 h (SARS-CoV2; 0.03 μM): 20.60% and 10.69% and 23.44% | Percentages of infection at 24 h (SARS-CoV2; 0.08 μM): 37.97% and 32.40% and 10.00% | Percentages of infection at 24 h (SARS-CoV2; 0.25 μM): 8.05% and 17.17% and 39.50% | Percentages of infection at 24 h (SARS-CoV2; 0.74 μM): 10.55% and 6.40% and 14.40% | Percentages of infection at 24 h (SARS-CoV2; 2.22 μM): 2.04% and 1.54% and 1.69% | Percentages of infection at 24 h (SARS-CoV2; 6.67 μM): 0.34% and 0.27% and 0.23% | Percentages of infection at 24 h (SARS-CoV2; 20.00 μM): 0.78% and 0.24% and 0.27% | EC50 (SARS-CoV2; [1]): 0.654 µM | EC90 (SARS-CoV2; [1]): 1690 µM | TC90 (Vero cells): 3.4416 µM
